Data: ChEMBL document CHEMBL5214891, “The subgroup of 2'-hydroxy-flavonoids: Molecular diversity, mechanism of action, and anticancer properties” (Bioorg Med Chem, 2021)

What was measured:
[1] = Downregulation of PSA mRNA expression in human LNCaP cells measured after 12 hrs by RT-PCR assay; format: functional, cell-based
[2] = target: 11-beta-hydroxysteroid dehydrogenase 1 (Homo sapiens, UniProt P28845); assay: Inhibition of human 11beta-HSD1 expressed in HEK-293 cells incubated for 10 mins; format: cell-based, HEK293
Chain of 11-beta-hydroxysteroid dehydrogenase 1 (P28845 whole entry): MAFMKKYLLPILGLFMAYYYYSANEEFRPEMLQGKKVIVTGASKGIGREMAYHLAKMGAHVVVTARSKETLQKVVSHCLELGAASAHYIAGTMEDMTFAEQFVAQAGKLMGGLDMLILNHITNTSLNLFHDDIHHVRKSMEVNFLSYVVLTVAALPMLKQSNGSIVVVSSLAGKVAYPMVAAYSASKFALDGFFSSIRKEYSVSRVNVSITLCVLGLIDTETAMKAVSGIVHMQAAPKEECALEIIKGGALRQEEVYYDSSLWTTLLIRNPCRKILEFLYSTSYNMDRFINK

[3] = Dissociation constant, pKa of compound; format: physicochemical

IC50 [1] [µM]	Compound	IC50 [2] [µM]	pKa [3]
18	O=c1c(-c2ccc(O)cc2O)coc2cc(O[C@@H]3O[C@H](CO)[C@@H](O)[C@H](O)[C@H]3O)cc(O)c12		
	O=C1CC(c2ccccc2O)Oc2ccccc21 (stereo not drawn) [2'-HYDROXY-FLAVANONE]	10	6.67
